# Data reported in patent publication US8748632B2, “Positive allosteric modulators of group II mGluRs” (Sanford-Burnham Medical Research Institute, priority 2010, dated 2014).
# Molecular target: mGluR2 (Rattus norvegicus, UniProt P31421)
# Test: mGluR2 PAM (positive allosteric modulator) EC50
# Format: cell-based
# Conditions: positive allosteric modulator activity
# Sequence of mGluR2 (P31421 19-872): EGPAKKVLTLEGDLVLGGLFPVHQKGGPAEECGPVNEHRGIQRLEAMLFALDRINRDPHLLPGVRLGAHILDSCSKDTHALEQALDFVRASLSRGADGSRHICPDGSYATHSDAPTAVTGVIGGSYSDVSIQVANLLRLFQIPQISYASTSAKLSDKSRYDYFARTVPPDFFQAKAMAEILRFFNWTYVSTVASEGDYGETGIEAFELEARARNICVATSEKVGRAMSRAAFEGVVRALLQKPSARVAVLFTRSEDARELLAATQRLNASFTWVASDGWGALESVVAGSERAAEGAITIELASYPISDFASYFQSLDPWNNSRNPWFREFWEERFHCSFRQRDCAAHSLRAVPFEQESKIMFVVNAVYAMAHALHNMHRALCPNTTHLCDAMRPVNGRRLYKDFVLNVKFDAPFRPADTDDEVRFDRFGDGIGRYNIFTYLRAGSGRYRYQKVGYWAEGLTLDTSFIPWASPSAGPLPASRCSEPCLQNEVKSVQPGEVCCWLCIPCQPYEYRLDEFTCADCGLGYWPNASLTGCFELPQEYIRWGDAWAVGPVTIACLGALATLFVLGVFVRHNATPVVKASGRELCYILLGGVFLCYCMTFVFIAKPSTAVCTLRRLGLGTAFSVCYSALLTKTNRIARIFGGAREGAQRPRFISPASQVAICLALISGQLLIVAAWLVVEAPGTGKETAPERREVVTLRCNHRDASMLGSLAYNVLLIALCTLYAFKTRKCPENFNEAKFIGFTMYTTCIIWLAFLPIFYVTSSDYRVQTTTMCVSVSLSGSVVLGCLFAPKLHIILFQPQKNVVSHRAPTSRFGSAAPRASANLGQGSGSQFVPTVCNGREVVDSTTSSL
smiles,measurement,value
"O=C(O)c1cc(-c2cccc(COc3ccc4c(=O)n(C5CCCCC5)oc4c3)c2)ccc1Cl [Example 61, 4-Chloro-3′-((2-cyclohexyl-3-oxo-2,3-dihydrobenzo[d]isoxazol-6-yloxy)methyl)biphenyl-3-carboxylic acid]",mGluR2 PAM EC50(μM),desensitizes
